Assay results from patent US20230210999A1, “TARGETED PROTEASE DEGRADATION (TED) PLATFORM” (EUBULUS BIOTHERAPEUTICS INC., priority 2020, published 2023).
Where two headings read alike, the source gives them in different places.

Assays:
Assay type in all cases: cell-based, human
MDA-MB-231 cells = assay: Cell proliferation experiment, MDA-MB-231; settings: read-out: Inhibitory activity IC50 on MDA-MB-231
How it was run: (§1)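 IC50 values derive from a four-parameter logistic fit of Alamar blue fluorescence. Cells in logarithmic growth, plated in 96-well format, are treated for 72 h with compound diluted 5-fold serially, two wells per concentration.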

NCIH82 cells = assay: Cell proliferation experiment, NCI-H82; settings: read-out: Inhibitory activity IC50 on NCI-H82
How it was run: as §1

MV4;11 cells = assay: Cell proliferation experiment (Alamar blue, 72 h), MV4;11; settings: read-out: Inhibitory activity IC50 on MV4;11
How it was run: as §1

Daudi cells = assay: Cell proliferation experiment, Daudi; settings: Daudi cells, read-out: Inhibitory activity IC50 on Daudi
How it was run: as §1

PC-3 = assay: Cell proliferation experiment, PC-3; settings: read-out: Inhibitory activity IC50 on PC-3
How it was run: as §1

[1] = Homo sapiens, MDA-MB-231, MDA-MB-231 cells
[2] = Homo sapiens, NCI-H82, NCI-H82 cells
[3] = Homo sapiens, MV4-11, MV4;11 cells

SMILES	IC50 (MDA-MB-231 cells; MDA-MB-231 cells) [µM]	IC50 (NCIH82 cells; NCI-H82 cells) [µM]	IC50 (MV4;11 cells; MV4;11 cells) [µM]	IC50 (Daudi cells) [µM]	IC50 (PC-3; PC-3 cells) [µM]	IC50 (MDA-MB-231 cells; [1]) [µM]	IC50 (NCIH82 cells; [2]) [µM]	IC50 (MV4;11 cells; [3]) [µM]	IC50 (Daudi cells; Homo sapiens, Daudi) [µM]	IC50 (PC-3; Homo sapiens, PC-3, PC-3 cells) [µM]
CNC(=O)c1ccccc1Nc1nc(Nc2ccc(N3CCN(C(=O)N[C@H]4CC[C@@H](NCCOCCC#Cc5cccc6c5CN(C5CCC(=O)NC5=O)C6=O)CC4)CC3)cc2)ncc1Cl (stereo partly shown) [UB-181121]	0.1 to 1	0.1 to 1	< 0.01	0.1 to 1	0.1 to 1	–	–	–	–	–
CNC(=O)c1ccccc1Nc1nc(Nc2ccc(N3CCN(C(=O)N[C@H]4CC[C@H](NCCC#Cc5ccc6c(c5)CN(C5CCC(=O)NC5=O)C6=O)CC4)CC3)nc2)ncc1Cl (stereo partly shown) [UB-181174]	–	–	–	–	–	> 1	> 1	0.01 to 0.1	0.01 to 0.1	0.01 to 0.1
CNC(=O)c1ccccc1Nc1nc(Nc2ccc(N3CCN(C(=O)N[C@H]4CC[C@@H](NCCOCCC#Cc5ccc6c(c5)CN(C5CCC(=O)NC5=O)C6=O)CC4)CC3)cc2)ncc1Cl (stereo partly shown) [UB-181080]	–	0.1 to 1	–	–	–	0.1 to 1	–	< 0.01	0.01 to 0.1	0.01 to 0.1
CNC(=O)c1ccccc1Nc1nc(Nc2ccc(N3CCN(C(=O)N[C@H]4CC[C@@H](NCCOCCC#Cc5cccc6c5CN(C5CCC(=O)NC5=O)C6=O)CC4)CC3)cc2)ncc1Cl (stereo partly shown) [UB-181078]	–	–	–	0.01 to 0.1	0.01 to 0.1	0.1 to 1	0.1 to 1	< 0.01	–	–
CNC(=O)c1ccccc1Nc1nc(Nc2ccc(N3CCN(C(=O)NC4CCC(N[C@H]5CC[C@@H](OCC#Cc6ccc7c(c6)CN(C6CCC(=O)NC6=O)C7=O)CC5)CC4)CC3)cc2)ncc1Cl (stereo partly shown) [UB-181127]	–	–	–	–	–	0.01 to 0.1	0.01 to 0.1	< 0.01	0.01 to 0.1	0.01 to 0.1
CNC(=O)c1ccccc1Nc1nc(Nc2ccc(N3CCN(C(=O)N[C@H]4CC[C@@H](NCCCC#Cc5ccc6c(c5)CN(C5CCC(=O)NC5=O)C6=O)CC4)CC3)cc2)ncc1Cl (stereo partly shown) [UB-181101]	–	–	–	–	–	0.1 to 1	0.01 to 0.1	< 0.01	0.01 to 0.1	0.1 to 1
CNC(=O)c1ccccc1Nc1nc(Nc2ccc(N3CCN(C(=O)N[C@H]4CC[C@@H](NCCOCCC#Cc5ccc6c(c5)CN(C5CCC(=O)NC5=O)C6=O)CC4)CC3)cc2)ncc1Cl (stereo partly shown) [UB-181115]	0.1 to 1	0.01 to 0.1	< 0.01	0.01 to 0.1	0.01 to 0.1	–	–	–	–	–
CNC(=O)c1ccccc1Nc1nc(Nc2ccc(N3CCN(C(=O)N[C@H]4CC[C@@H](NCCOCCC#Cc5ccc6c(c5)CN(C5CCC(=O)NC5=O)C6=O)CC4)CC3)nc2)ncc1Cl (stereo partly shown) [UB-181142]	–	–	–	–	–	0.1 to 1	0.1 to 1	< 0.01	0.1 to 1	0.1 to 1
CNC(=O)c1ccccc1Nc1nc(Nc2ccc(N3CCN(C(=O)NC4CCC(NC5CCC(OCC#Cc6ccc7c(c6)CN(C6CCC(=O)NC6=O)C7=O)CC5)CC4)CC3)cc2)ncc1Cl (stereo not shown) [UB-181131]	–	–	–	–	–	> 1	0.01 to 0.1	0.01 to 0.1	0.1 to 1	> 1
CNC(=O)c1ccccc1Nc1nc(Nc2ccc(N3CCN(C(=O)NCCCCOCCCCNCC(=O)Nc4cccc5c4CN(C4CCC(=O)NC4=O)C5=O)CC3)cc2)ncc1Cl (stereo not shown) [UB-181048]	–	–	–	–	–	> 1	0.1 to 1	< 0.01	0.01 to 0.1	> 1
CNC(=O)c1ccccc1Nc1nc(Nc2ccc(N3CCN(C(=O)N[C@H]4CC[C@@H](NCCC#Cc5ccc6c(c5)CN(C5CCC(=O)NC5=O)C6=O)CC4)CC3)cn2)ncc1Cl (stereo partly shown) [UB-181188]	–	–	–	–	–	> 1	0.01 to 0.1	0.01 to 0.1	0.01 to 0.1	0.01 to 0.1
CNC(=O)c1ccccc1Nc1nc(Nc2ccc(C3CCN(C(=O)N[C@H]4CC[C@@H](NCCOCCC#Cc5ccc6c(c5)CN(C5CCC(=O)NC5=O)C6=O)CC4)CC3)cc2)ncc1Cl (stereo partly shown) [UB-181122]	–	–	–	–	–	0.1 to 1	0.1 to 1	< 0.01	0.1 to 1	0.1 to 1
CNC(=O)c1ccccc1Nc1nc(Nc2ccc(N3CCN(C(=O)NCCCOCC(O)COCC#Cc4ccc5c(c4)CN(C4CCC(=O)NC4=O)C5=O)CC3)cc2)ncc1Cl (stereo not shown) [UB-181076]	–	–	–	–	–	> 1	0.1 to 1	< 0.01	0.01 to 0.1	> 1
NC(=O)c1ccccc1Nc1nc(Nc2ccc(N3CCN(C(=O)N[C@H]4CC[C@@H](NCCC#Cc5ccc6c(c5)CN(C5CCC(=O)NC5=O)C6=O)CC4)CC3)cc2)ncc1Cl (stereo partly shown) [UB-181189]	–	–	–	–	–	0.01 to 0.1	0.01 to 0.1	< 0.01	< 0.01	< 0.01
CNC(=O)c1ccccc1Nc1nc(Nc2ccc(N3CCN(C(=O)NCCCCOCCCCNCC(=O)Nc4ccc5c(c4)CN(C4CCC(=O)NC4=O)C5=O)CC3)cc2)ncc1Cl (stereo not shown) [UB-181049]	–	–	–	–	–	> 1	0.01 to 0.1	0.01 to 0.1	0.01 to 0.1	0.1 to 1
NC(=O)c1ccccc1Nc1nc(Nc2ccc(N3CCN(C(=O)N[C@H]4CC[C@@H](NCCC#Cc5cccc6c5CN(C5CCC(=O)NC5=O)C6=O)CC4)CC3)cc2)ncc1Cl (stereo partly shown) [UB-181190]	–	–	–	–	–	0.01 to 0.1	0.01 to 0.1	< 0.01	0.01 to 0.1	0.01 to 0.1
CNC(=O)c1ccccc1Nc1nc(Nc2ccc(N3CCN(C(=O)N[C@H]4CC[C@@H](NCCC#Cc5ccc6c(c5)CN(C5CCC(=O)NC5=O)C6=O)CC4)CC3)nc2)ncc1Cl (stereo partly shown) [UB-181169]	–	–	–	–	–	> 1	0.1 to 1	0.01 to 0.1	0.1 to 1	0.01 to 0.1
CNC(=O)c1ccccc1Nc1nc(Nc2ccc(N3CCC(C(=O)N[C@H]4CC[C@@H](NCCC#Cc5cccc6c5CN(C5CCC(=O)NC5=O)C6=O)CC4)CC3)cc2)ncc1Cl (stereo partly shown) [UB-181186]	–	–	–	–	–	0.1 to 1	0.01 to 0.1	< 0.01	0.01 to 0.1	< 0.01
CNC(=O)c1ccccc1Nc1nc(Nc2ccc(C3CCN(C(=O)N[C@H]4CC[C@H](NCCC#Cc5ccc6c(c5)CN(C5CCC(=O)NC5=O)C6=O)CC4)CC3)cc2)ncc1Cl (stereo partly shown) [UB-181137]	–	–	–	–	–	0.1 to 1	0.1 to 1	< 0.01	0.1 to 1	0.01 to 0.1
CNC(=O)c1ccccc1Nc1nc(Nc2ccc(N3CCC(C(=O)N[C@H]4CC[C@@H](NCCC#Cc5ccc6c(c5)CN(C5CCC(=O)NC5=O)C6=O)CC4)CC3)cc2)ncc1Cl (stereo partly shown) [UB-181184]	–	–	–	–	–	0.1 to 1	0.01 to 0.1	< 0.01	0.01 to 0.1	0.01 to 0.1
CC[C@@H]1C(=O)N(C)c2cnc(Nc3ccc(C(=O)N[C@H]4CC[C@@H](N(C)CCOCCC#Cc5cccc6c5CN(C5CCC(=O)NC5=O)C6=O)CC4)cc3)nc2N1C1CCCC1 (stereo partly shown) [UB-181175]	–	–	–	–	–	0.01 to 0.1	–	< 0.01	0.01 to 0.1	0.01 to 0.1
CC[C@@H]1C(=O)N(C)c2cnc(Nc3ccc(-c4cn([C@H]5CC[C@@H](NCCOCCC#Cc6cccc7c6CN(C6CCC(=O)NC6=O)C7=O)CC5)nn4)cc3)nc2N1C1CCCC1 (stereo partly shown) [UB-181154]	0.1 to 1	–	< 0.01	0.1 to 1	0.01 to 0.1	–	–	–	–	–
CNC(=O)c1ccccc1Nc1nc(Nc2ccc(N3CCN(C(=O)N[C@H]4CC[C@@H](N(C)CCC#Cc5ccc6c(c5)CN(C5CCC(=O)NC5=O)C6=O)CC4)CC3)cc2)ncc1Cl (stereo partly shown) [UB-181185]	–	–	–	–	–	0.01 to 0.1	0.01 to 0.1	< 0.01	0.01 to 0.1	0.01 to 0.1
NC(=O)c1ccccc1Nc1nc(Nc2ccc(C3CCN(C(=O)N[C@H]4CC[C@@H](NCCC#Cc5ccc6c(c5)CN(C5CCC(=O)NC5=O)C6=O)CC4)CC3)cc2)ncc1Cl (stereo partly shown) [UB-181182]	–	–	–	–	–	0.1 to 1	0.01 to 0.1	< 0.01	0.1 to 1	0.1 to 1
CC[C@@H]1C(=O)N(C)c2cnc(Nc3ccc(-c4cn([C@H]5CC[C@@H](NCCOCCC#Cc6cccc7c6CN(C6CCC(=O)NC6=O)C7=O)CC5)nn4)cc3OC)nc2N1Cc1ccc(Cl)s1 (stereo partly shown) [UB-181145]	–	–	–	–	–	< 0.01	–	< 0.01	< 0.01	< 0.01
NC(=O)c1ccccc1Nc1nc(Nc2ccc(C3CCN(C(=O)N[C@H]4CC[C@@H](NCC(O)CC#Cc5ccc6c(c5)CN(C5CCC(=O)NC5=O)C6=O)CC4)CC3)cc2)ncc1Cl (stereo partly shown) [UB-181194]	–	–	–	–	–	> 1	> 1	< 0.01	> 1	> 1
CC[C@@H]1C(=O)N(C)c2cnc(Nc3ccc(-c4cn([C@H]5CC[C@H](NCCOCCC#Cc6cccc7c6CN(C6CCC(=O)NC6=O)C7=O)CC5)nn4)cc3OC)nc2N1C1CCCC1 (stereo partly shown) [UB-181108]	–	–	–	–	–	0.01 to 0.1	–	< 0.01	0.01 to 0.1	0.01 to 0.1
CC[C@@H]1C(=O)N(C)c2cnc(Nc3ccc(-c4cn([C@H]5CC[C@@H](N(CCOCCC#Cc6cccc7c6CN(C6CCC(=O)NC6=O)C7=O)C(=O)OCc6ccc(NC(=O)[C@H](CC(N)=O)NC(=O)[C@H](C)NC(=O)[C@H](C)NC(=O)CCCCCN7C(=O)C=CC7=O)cc6)CC5)nn4)cc3OC)nc2N1C1CCCC1 (stereo partly shown) [UB-181149]	–	–	–	–	–	0.1 to 1	–	0.1 to 1	0.1 to 1	0.1 to 1
CC[C@@H]1C(=O)N(C)c2cnc(Nc3ccc(C(=O)N[C@H]4CC[C@H](N(C)CCOCCC#Cc5cccc6c5CN(C5CCC(=O)NC5=O)C6=O)CC4)cc3)nc2N1C1CCCC1 (stereo partly shown) [UB-181176]	–	–	–	–	–	0.01 to 0.1	–	< 0.01	0.01 to 0.1	0.01 to 0.1
